These are literature values, as cited in patent US20110166112A1, “METHOD FOR STIMULATING PLATELET PRODUCTION” (Eisai, Inc., priority 2009, published 2011).

For this data set, the system named is subjects. The settings on record: in eight days; cited from earlier work.

The structures appear in SMILES notation.

Regarding `CC1=NN(c2ccc(C)c(C)c2)C(=O)/C1=N\Nc1cccc(-c2cccc(C(=O)O)c2)c1O.NCCO.NCCO` [Promacta®], the “subjects who achieved a platelet response of 50,000/mm^3” value is on record as 44-62%.
